Data on 21 compounds can be found in patent publication US20110053947A1, “Arylchalcogenoarylalkyl-substituted imidazolidine-2,4-diones, process for preparation thereof, medicaments comprising these compounds and use thereof” (SANOFI-AVENTIS, priority 2008, published 2011).

Where a name gives a salt, the structure may show the parent alone. Where only a bound is given, the exact number is not on record here.

T3 sequence (P34972 whole entry): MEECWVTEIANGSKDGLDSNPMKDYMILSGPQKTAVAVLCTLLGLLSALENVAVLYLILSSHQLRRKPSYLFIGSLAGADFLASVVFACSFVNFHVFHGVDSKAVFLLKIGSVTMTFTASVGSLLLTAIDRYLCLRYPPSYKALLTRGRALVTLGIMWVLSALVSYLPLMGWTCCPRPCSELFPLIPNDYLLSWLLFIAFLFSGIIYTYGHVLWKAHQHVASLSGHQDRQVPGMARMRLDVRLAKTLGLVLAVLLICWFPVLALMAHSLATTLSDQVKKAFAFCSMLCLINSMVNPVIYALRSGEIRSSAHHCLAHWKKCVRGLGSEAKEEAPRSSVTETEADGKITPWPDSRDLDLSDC

In one experiment the target is T1, cannabinoid 1 receptor (hCB1R) (Homo sapiens, UniProt P21554).
T1 construct: expressed in transfected cells; host or cells: HEK293
T1 sequence (P21554 whole entry): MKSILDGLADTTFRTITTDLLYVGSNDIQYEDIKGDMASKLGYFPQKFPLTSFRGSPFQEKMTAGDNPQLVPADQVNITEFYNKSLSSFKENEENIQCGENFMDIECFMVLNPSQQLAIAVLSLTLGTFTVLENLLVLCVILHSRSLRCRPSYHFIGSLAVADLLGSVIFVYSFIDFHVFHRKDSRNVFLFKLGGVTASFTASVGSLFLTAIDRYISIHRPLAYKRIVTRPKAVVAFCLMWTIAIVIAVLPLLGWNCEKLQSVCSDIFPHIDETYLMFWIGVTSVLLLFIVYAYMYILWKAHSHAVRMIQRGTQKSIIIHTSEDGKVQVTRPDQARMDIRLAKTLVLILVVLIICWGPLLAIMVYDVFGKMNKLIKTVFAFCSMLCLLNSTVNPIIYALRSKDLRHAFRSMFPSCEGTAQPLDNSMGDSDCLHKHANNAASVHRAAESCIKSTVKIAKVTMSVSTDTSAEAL
The experiment is described as follows: In vitro functional assay with recombinant cells (FLIPR), CB1. It counts as cell-based. As to conditions: hCB1R: FLIPR; IC50, recombinant HEK293 cells expressing CB1 and G-protein; intracellular Ca2+ change after reference agonist, 20 min preincubation. Here is the method: (§1) In vitro functional assays with recombinant cells:
(§2) Function-testing assays were performed by means of the FLIPR technique (“Fluorometric Imaging Plate Reader”, Molecular Devices Corp.).
(§3) To this end, ligand-induced changes in the intracellular concentration of Ca^2+ in recombinant HEK293 cells, which expressed both a cannabinoid receptor (CB1 or CB2) and G-protein Galphal6, were determined. For the studies, cells were sown into 96-well microtiter plates (60 000 cells/well) and left to grow overnight. The medium was removed and the cells were incubated in buffer which contained the fluorescent dye Fluo-4. After this loading with dye, the cells were washed, test substance was added dissolved in buffer, the mixture was incubated for 20 minutes, a known cannabinoid receptor agonist as a reference agonist was added in buffer and, finally, the changes in the intracellular Ca^2+ concentration were measured in the FLIPR unit.
Results were presented as the percentage change relative to the control (0%: analogous experiment without test substance and without reference agonist, i.e. only with buffer; 100%: analogous experiment without test substance, but with reference agonist in excess), and used to calculate dose/action curves, and IC50 values were determined.
The values of the functional assay compared to the cannabinoid 1 receptor including illustrative selectivities compared to the cannabinoid 2 receptor can be taken from table 1 which follows.
In the case of `CC1(C)C(=O)N(c2ccc(C#N)c(C(F)(F)F)c2)C(=O)N1Cc1ccccc1NC(=O)Nc1ccc(C#N)cc1` [Example 6, 1-(4-cyanophenyl)-3-{2-[3-(4-cyano-3-trifluoromethylphenyl)-5,5-dimethyl-2,4-dioxoimidazolidin-1-ylmethyl]phenyl}urea], the IC50 is 11 nM.

Still in this experiment, the particulars now being: recombinant HEK293 cells expressing CB1 and G-protein; intracellular Ca2+ change after reference agonist, 20 min preincubation; read-out: hCB1R: FLIPR; IC50.
For the compound `CC1(C)C(=O)N(c2ccc(C#N)c(C(F)(F)F)c2)C(=O)N1Cc1ccc(F)cc1NC(=O)Nc1ccnc(O)c1` [Example 43, 1-{2-[3-(4-cyano-3-trifluoromethylphenyl)-5,5-dimethyl-2,4-dioxoimidazolidin-1-ylmethyl]-5-fluorophenyl}-3-(2-hydroxypyridin-4-yl)urea], the IC50 was determined as 27 nM.

With `CCOc1ccc(NC(=O)Nc2ccccc2CN2C(=O)N(c3ccc(C#N)c(C(F)(F)F)c3)C(=O)C2(C)C)cc1` [Example 10, 1-{2-[3-(4-cyano-3-trifluoromethylphenyl)-5,5-dimethyl-2,4-dioxoimidazolidin-1-ylmethyl]phenyl}-3-(4-ethoxyphenyl)urea], the IC50 was 53 nM.

In the case of `COC(=O)CSc1ccc(NC(=O)Nc2cc(F)ccc2CN2C(=O)N(c3ccc(C#N)c(C(F)(F)F)c3)C(=O)C2(C)C)cc1` [Example 49], the IC50 was found to be 2 nM.

Take `CC1(C)C(=O)N(c2ccc(F)c(C(F)(F)F)c2)C(=O)N1Cc1ccc(F)cc1NC(=O)Nc1ccc(C(=O)NS(=O)(=O)C2CC2)cc1` [Example 65, N-[4-(3-{5-fluoro-2-[3-(4-fluoro-3-trifluoromethylphenyl)-5,5-dimethyl-2,4-dioxoimidazolidin-1-ylmethyl]phenyl}ureido)benzoyl]cyclopropanesulfonamide]: the IC50 is 42 nM.

Consider `CC1(C)C(=O)N(c2ccc(C#N)c(C(F)(F)F)c2)C(=O)N1Cc1ccc(F)cc1NC(=O)Nc1ccc(O)cc1` [Example 41, 1-{2-[3-(4-Cyano-3-trifluoromethylphenyl)-5,5-dimethyl-2,4-dioxo-imidazolidin-1-ylmethyl]-5-fluorophenyl}-3-(4-hydroxyphenyl)urea], for which the IC50 came to 4 nM.

As to `CC1(C)C(=O)N(c2ccc(C#N)c(C3CC3)c2)C(=O)N1Cc1cc(C(F)(F)F)ccc1NC(=O)Nc1ccc(S(C)(=O)=O)cc1` [Example 66, 1-{2-[3-(4-Cyano-3-cyclopropylphenyl)-5,5-dimethyl-2,4-dioxoimidazolidin-1-ylmethyl]-4-trifluoromethylphenyl}-3-(4-methanesulfonylphenyl)urea], the IC50 is 10 nM.

Another experiment deals with T2, CHO-K1/cannabinoid CB1 (hCB1R) (Homo sapiens, UniProt P21554).
T2 construct: expressed in transfected cells; host or cells: CHO-K1
T2 sequence (P21554 whole entry): as above
The experiment is described as follows: Binding to the CB1 receptor ([3H]-SR141716A displacement). The settings on record: [3H]-SR141716A 0.5 nM; Ki from IC50 and Kd by Cheng-Prusoff; average of double determination; read-out: hCB1R; Bindung Ki. Here is the method:
Binding to the CB 1 Receptor:
Test compounds: The compounds (3 μl, 10 mM, 100% DMSO), pipetted into 96-well PP microtiter plates, were diluted with 27 μl of 100% DMSO (dimethyl sulfoxide). Proceeding from this solution, further 3-fold dilution steps were undertaken by transferring 10 μl in each case to a new PP microtiter plate and adding a further 20 μl of 100% DMSO. In each case 6 μA of these solutions were transferred into new 96-well PP microtiter plates and made up with 144 μl of assay buffer. The end concentrations ranged from 10 μM to 0.005 μM. Negative control: AM 251, dissolved in assay buffer with 1% DMSO, was added to the dilution series in the microtiter plates as a control. The end concentration was 1 μM. Blank control: assay buffer with 1% DMSO was added to the dilution series of the microtiter plates as a blank control.
Summary of the Assay Parameters:
The values were calculated using the corrected raw data.
The values reported were obtained as average values of a double determination. The IC50 values were calculated from the measurements with the program Xlfit, formula 205. Ki values were obtained from the IC50 and Kd values utilizing the Cheng-Prusoff equation: […]
Literature: Cheng, Y.-C., and Prusoff, W. H. (1973) Biochem. Pharmacol 22, 3099-3108 Results: Ki values of example compounds; Table 2: […]
Regarding `CCOP(=O)(OCC)c1ccc(NC(=O)Nc2cc(F)ccc2CN2C(=O)N(c3ccc(F)c(C(F)(F)F)c3)C(=O)C2(C)C)cc1` [Example 32, Diethyl [4-(3-{5-fluoro-2-[3-(4-fluoro-3-trifluoromethylphenyl)-5,5-dimethyl-2,4-dioxoimidazolidin-1-ylmethyl]phenyl}ureido)phenyl]phosphonate], the Ki was 40 nM.

On to `COC(=O)c1ccc(NC(=O)Nc2cc(F)ccc2CN2C(=O)N(c3ccc(C#N)c(C(F)(F)F)c3)C(=O)C2(C)C)nc1` [Example 42, methyl 6-(3-{2-[3-(4-cyano-3-trifluoromethylphenyl)-5,5-dimethyl-2,4-dioxoimidazolidin-1-ylmethyl]-5-fluorophenyl}ureido)nicotinate], for which the Ki came out at 35 nM.

For the compound `C[S+]([O-])c1ccc(NC(=O)Nc2ccccc2CN2C(=O)N(c3ccc(C#N)c(C(F)(F)F)c3)C(=O)C2(C)C)cc1` (stereo not shown) [Example 12, 1-{2-[3-(4-cyano-3-trifluoromethylphenyl)-5,5-dimethyl-2,4-dioxoimidazolidin-1-ylmethyl]phenyl}-3-(4-methanesulfinylphenyl)urea], the Ki was 11 nM.

With `CC1(C)C(=O)N(c2ccc(C#N)c(C(F)(F)F)c2)C(=O)N1Cc1ccc(F)cc1NC(=O)Nc1ccc(C(=O)O)cc1` [Example 18, 4-(3-{2-[3-(4-Cyano-3-trifluoromethylphenyl)-5,5-dimethyl-2,4-dioxoimidazolidin-1-ylmethyl]-5-fluorophenyl}ureido)benzoic acid], the Ki stood at 68 nM.

For `COC(=O)c1ccc(NC(=O)Nc2cc(F)ccc2CN2C(=O)N(c3ccc(F)c(C(F)(F)F)c3)C(=O)C2(C)C)cc1` [Example 59, methyl 4-(3-{5-fluoro-2-[3-(4-fluoro-3-trifluoromethylphenyl)-5,5-dimethyl-2,4-dioxoimidazolidin-1-ylmethyl]phenyl}ureido)benzoate], the Ki amounted to 29 nM.

In the case of `CC1(C)C(=O)N(c2ccc(C#N)c(C(F)(F)F)c2)C(=O)N1Cc1ccccc1NC(=O)Nc1ccc(F)cc1F` [Example 7, 1-{2-[3-(4-cyano-3-trifluoromethylphenyl)-5,5-dimethyl-2,4-dioxoimidazolidin-1-ylmethyl]phenyl}-3-(2,4-difluorophenyl)urea], the Ki is 73 nM.

Turning to `CC1(C)C(=O)N(c2ccc(C#N)c(C(F)(F)F)c2)C(=O)N1Cc1ccccc1NS(=O)(=O)Cc1ccc(F)cc1F` [Example 15, N-{2-[3-(4-cyano-3-trifluoromethylphenyl)-5,5-dimethyl-2,4-dioxoimidazolidin-1-ylmethyl]phenyl}-C-(2,4-difluorophenyl)methanesulfonamide], the Ki worked out at 58 nM.

On to `CC1(C)C(=O)N(c2ccc(C#N)c(C(F)(F)F)c2)C(=O)N1Cc1ccc(F)cc1NC(=O)Nc1ccnc(O)c1` [Example 43, 1-{2-[3-(4-cyano-3-trifluoromethylphenyl)-5,5-dimethyl-2,4-dioxoimidazolidin-1-ylmethyl]-5-fluorophenyl}-3-(2-hydroxypyridin-4-yl)urea], for which the Ki came to 17 nM.

`COC(=O)CSc1ccc(NC(=O)Nc2cc(F)ccc2CN2C(=O)N(c3ccc(C#N)c(C(F)(F)F)c3)C(=O)C2(C)C)cc1` [Example 49]: the Ki was 11 nM.

With `CC1(C)C(=O)N(c2ccc(C#N)c(C(F)(F)F)c2)C(=O)N1Cc1ccc(F)cc1NC(=O)Nc1cc(Cl)nc(Cl)c1` [Example 21, 1-{2-[3-(4-cyano-3-trifluoromethylphenyl)-5,5-dimethyl-2,4-dioxoimidazolidin-1-ylmethyl]-5-fluorophenyl}-3-(2,6-dichloropyridin-4-yl)urea], the Ki was 34 nM.

Regarding `CC1(C)C(=O)N(c2ccc(C#N)c(C(F)(F)F)c2)C(=O)N1Cc1ccccc1NC(=O)Nc1ccc(S(C)(=O)=O)cc1` [Example 13, 1-{2-[3-(4-cyano-3-trifluoromethylphenyl)-5,5-dimethyl-2,4-dioxoimidazolidin-1-ylmethyl]phenyl}-3-(4-methanesulfonylphenyl)urea], the Ki is 7 nM.

As to `COC(=O)CS(=O)(=O)c1ccc(NC(=O)Nc2cc(F)ccc2CN2C(=O)N(c3ccc(C#N)c(C4CC4)c3)C(=O)C2(C)C)cc1` [Example 46, Methyl [4-(3-{2-[3-(4-cyano-3-cyclopropylphenyl)-5,5-dimethyl-2,4-dioxoimidazolidin-1-ylmethyl]-5-fluorophenyl}ureido)benzenesulfonyl]acetate], the Ki was determined as 7 nM.

On to `CC1(C)C(=O)N(c2ccc(F)c(C(F)(F)F)c2)C(=O)N1Cc1ccc(F)cc1NC(=O)Nc1ccc(N)cc1` [Example 23, 1-(4-Aminophenyl)-3-{5-fluoro-2-[3-(4-fluoro-3-trifluoromethylphenyl)-5,5-dimethyl-2,4-dioxoimidazolidin-1-ylmethyl]phenyl}urea hydrochloride], for which the Ki was determined as 17 nM.

On to `CC1(C)C(=O)N(c2ccc(F)c(C(F)(F)F)c2)C(=O)N1Cc1ccc(F)cc1NC(=O)Nc1ccc(S(N)(=O)=O)cc1` [Example 24, 4-(3-{5-fluoro-2-[3-(4-fluoro-3-trifluoromethylphenyl)-5,5-dimethyl-2,4-dioxoimidazolidin-1-ylmethyl]phenyl}ureido)benzenesulfonamide], for which the Ki amounted to 9 nM.

For the compound `CCS(=O)(=O)c1ccc(NC(=O)Nc2cc(F)ccc2CN2C(=O)N(c3ccc(C#N)c(C4CC4)c3)C(=O)C2(C)C)cc1` [Example 45, 1-{2-[3-(4-Cyano-3-cyclopropylphenyl)-5,5-dimethyl-2,4-dioxoimidazolidin-1-ylmethyl]-5-fluorophenyl}-3-(4-ethanesulfonylphenyl)urea], the Ki turned out to be 6 nM.

Turning to `CC1(C)C(=O)N(c2ccc(C#N)c(C(F)(F)F)c2)C(=O)N1Cc1ccccc1NC(=O)Nc1ccccc1` [Example 9, 1-{2-[3-(4-cyano-3-trifluoromethylphenyl)-5,5-dimethyl-2,4-dioxoimidazolidin-1-ylmethyl]phenyl}-3-phenylurea], the Ki is 32 nM.

The next experiment has as its target T3, cannabinoid 2 receptor (hCB2R) (Homo sapiens, UniProt P34972).
T3 construct: expressed in transfected cells; host or cells: HEK293
The experiment is described as follows: In vitro functional assay with recombinant cells (FLIPR), CB2. It counts as cell-based.
Conditions: not given
Here is the method:
as §1, §2, §3
Regarding `CCOc1ccc(NC(=O)Nc2ccccc2CN2C(=O)N(c3ccc(C#N)c(C(F)(F)F)c3)C(=O)C2(C)C)cc1` [Example 10, 1-{2-[3-(4-cyano-3-trifluoromethylphenyl)-5,5-dimethyl-2,4-dioxoimidazolidin-1-ylmethyl]phenyl}-3-(4-ethoxyphenyl)urea], the IC50 was above 10000 nM.

The experiment is the same for the next values; noted with them: recombinant HEK293 cells expressing CB2 and G-protein; intracellular Ca2+ change after reference agonist, 20 min preincubation; read-out: hCB2R: FLIPR; IC50.
On to `CC1(C)C(=O)N(c2ccc(C#N)c(C(F)(F)F)c2)C(=O)N1Cc1ccccc1NC(=O)Nc1ccc(C#N)cc1` [Example 6, 1-(4-cyanophenyl)-3-{2-[3-(4-cyano-3-trifluoromethylphenyl)-5,5-dimethyl-2,4-dioxoimidazolidin-1-ylmethyl]phenyl}urea], for which the IC50 is above 10000 nM.
